Our source for the EC50 and AC50 values is ChEMBL document CHEMBL1201862, “PubChem BioAssay data set” (2004).

Molecules are shown by their SMILES. The source made the active and inactive calls.

Series [1] can be described thus: Luminescence Cell-Based Dose Response HTS to Identify Inhibitors of 5'UTR Stem-Loop Driven Prion Protein mRNA Translation in H4 Neuroglioblastoma Cells. [Related pubchem assays: 1827 (Project Summary), 1813 (Primary HTS)]. Type of series: functional.
A short description of series [2]: inhibitors of firefly luciferase expression or activity, dose response, H4 neuroglioma cells, luminescence (AID 1990). Type of series: functional, cell-based.
Series [3] in a line: inhibitors of SNCA 5'UTR-driven reporter translation, confirmation, H4 neuroglioma cells, luminescence (AID 1988). The series is classed as functional, cell-based.
The target of a further series is Cytochrome P450 2C9 (Homo sapiens, UniProt P11712).
Sequence of Cytochrome P450 2C9 (P11712 whole entry): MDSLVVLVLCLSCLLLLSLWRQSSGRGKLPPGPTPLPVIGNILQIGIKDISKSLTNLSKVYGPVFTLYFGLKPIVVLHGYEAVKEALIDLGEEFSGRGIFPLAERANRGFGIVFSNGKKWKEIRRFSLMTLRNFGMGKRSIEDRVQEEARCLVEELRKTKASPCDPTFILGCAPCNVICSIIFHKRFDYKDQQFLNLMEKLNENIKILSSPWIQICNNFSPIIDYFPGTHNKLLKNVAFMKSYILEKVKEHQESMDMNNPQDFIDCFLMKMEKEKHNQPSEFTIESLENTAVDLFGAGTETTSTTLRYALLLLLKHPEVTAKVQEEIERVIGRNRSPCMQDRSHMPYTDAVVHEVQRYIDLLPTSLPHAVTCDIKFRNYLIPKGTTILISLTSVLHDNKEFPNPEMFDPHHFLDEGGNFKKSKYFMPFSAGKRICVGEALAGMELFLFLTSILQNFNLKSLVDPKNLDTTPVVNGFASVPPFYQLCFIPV
For the next series, the target named is Cytochrome P450 2C19 (Homo sapiens, UniProt P33261). Put plainly: Cytochrome panel assay with activity outcomes. Panel member name: p450-cyp2c19 Compounds with AC50 equal or less than 10 uM are considered active. The series is classed as functional.
Sequence of Cytochrome P450 2C19 (P33261 whole entry): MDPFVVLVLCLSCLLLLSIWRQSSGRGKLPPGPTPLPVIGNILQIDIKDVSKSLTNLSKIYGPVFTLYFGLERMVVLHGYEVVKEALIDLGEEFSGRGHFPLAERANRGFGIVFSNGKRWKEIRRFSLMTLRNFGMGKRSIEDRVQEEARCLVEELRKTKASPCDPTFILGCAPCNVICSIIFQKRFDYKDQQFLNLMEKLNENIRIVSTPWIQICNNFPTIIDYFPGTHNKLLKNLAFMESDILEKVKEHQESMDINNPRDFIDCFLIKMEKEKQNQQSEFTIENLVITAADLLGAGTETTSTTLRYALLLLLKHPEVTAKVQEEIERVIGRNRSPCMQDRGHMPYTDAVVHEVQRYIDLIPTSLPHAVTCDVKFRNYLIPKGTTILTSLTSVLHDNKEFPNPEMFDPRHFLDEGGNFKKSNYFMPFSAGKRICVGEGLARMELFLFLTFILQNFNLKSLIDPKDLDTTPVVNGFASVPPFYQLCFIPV
The next series has as its target Cytochrome P450 3A4 (Homo sapiens, UniProt P08684).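 Also: CYP3A4 tested as one member of a cytochrome P450 panel screen.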
Series [4] has as its target T1, Corticotropin-releasing factor receptor 2/Corticotropin-releasing factor-binding protein (Homo sapiens, UniProt P24387+Q13324).
T1 sequence (Q13324 whole entry): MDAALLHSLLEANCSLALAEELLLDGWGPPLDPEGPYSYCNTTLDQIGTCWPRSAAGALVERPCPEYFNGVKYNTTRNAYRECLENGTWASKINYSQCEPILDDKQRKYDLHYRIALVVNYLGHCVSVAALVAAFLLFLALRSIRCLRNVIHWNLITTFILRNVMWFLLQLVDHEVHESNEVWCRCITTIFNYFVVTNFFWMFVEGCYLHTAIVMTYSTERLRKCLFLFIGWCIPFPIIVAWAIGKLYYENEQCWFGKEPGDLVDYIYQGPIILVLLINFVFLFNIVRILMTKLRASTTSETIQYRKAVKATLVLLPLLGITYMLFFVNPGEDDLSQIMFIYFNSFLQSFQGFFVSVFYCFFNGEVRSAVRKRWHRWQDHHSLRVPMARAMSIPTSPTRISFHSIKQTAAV
T1 sequence (P24387 whole entry): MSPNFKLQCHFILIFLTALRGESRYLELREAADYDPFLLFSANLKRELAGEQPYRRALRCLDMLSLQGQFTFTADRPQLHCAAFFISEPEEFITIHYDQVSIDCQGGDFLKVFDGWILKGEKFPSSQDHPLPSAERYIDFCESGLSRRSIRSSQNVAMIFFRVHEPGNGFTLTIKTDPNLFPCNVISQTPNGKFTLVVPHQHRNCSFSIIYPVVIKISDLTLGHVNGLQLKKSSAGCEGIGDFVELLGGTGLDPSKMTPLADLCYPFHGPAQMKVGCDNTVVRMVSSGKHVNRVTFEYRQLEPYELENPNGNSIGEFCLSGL
Put plainly: activators of CRF receptor 2 with binding protein – uHTS hits, confirmation (AID 602473). Type of series: functional. The note with it: read-out: EC50_Mean.

Sequence of Cytochrome P450 3A4 (P08684 whole entry): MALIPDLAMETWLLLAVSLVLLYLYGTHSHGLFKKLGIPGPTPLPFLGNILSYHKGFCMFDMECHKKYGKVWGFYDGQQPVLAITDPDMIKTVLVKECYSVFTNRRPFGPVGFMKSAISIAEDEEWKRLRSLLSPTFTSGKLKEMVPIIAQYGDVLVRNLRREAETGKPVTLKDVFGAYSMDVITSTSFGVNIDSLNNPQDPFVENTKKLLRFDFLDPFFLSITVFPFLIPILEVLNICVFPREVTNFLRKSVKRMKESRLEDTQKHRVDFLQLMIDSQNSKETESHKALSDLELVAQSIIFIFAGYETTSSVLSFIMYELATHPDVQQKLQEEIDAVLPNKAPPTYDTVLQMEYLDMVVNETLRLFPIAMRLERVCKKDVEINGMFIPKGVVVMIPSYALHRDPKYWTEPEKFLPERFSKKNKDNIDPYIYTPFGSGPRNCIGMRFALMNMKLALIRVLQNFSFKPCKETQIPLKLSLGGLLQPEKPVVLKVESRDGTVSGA

Take `CN(C)CCNC(=O)c1csc(Nc2cccc3ccccc23)n1`: the EC50 in series [1] was 23.6 µM (active); in series [2], > 120 µM (not active); in series [3] it was 17.1 µM (active).

Turning to `COc1ccc(NC(=O)c2cc(-c3cccnc3)nc3ccc(C)cc23)cc1OC`, the figures for the AC50 at Cytochrome P450 2C9 and at Cytochrome P450 2C19 (read-out: AC50) were 7.08 µM (inconclusive) and 10 µM (inconclusive), respectively.

With `O=c1c(-c2ccc(Cl)cc2)nc2cncnc2n1Cc1ccc(F)cc1`, at Cytochrome P450 3A4, the AC50 was 15.8 µM (inconclusive). With `COc1ccc(NC(=O)N2CCCC3(CCN(C(=O)c4c(C)noc4C)CC3)C2)cc1`, at Cytochrome P450 3A4, the AC50 was 25.1 µM (inconclusive).

In the case of `C[C@@H](C(=O)Nc1ccc2ccccc2c1)[C@H]1C[C@]1(C)[C@H](NC(=O)Oc1ccc(F)cc1)c1ccccc1`, the AC50 at Cytochrome P450 2C9 is 31.6 µM (inconclusive).

Take `Cc1cc(C)c2cc(C#N)c(NCCOC(=O)c3ccccc3C)nc2c1`: the AC50 at Cytochrome P450 2C19 (read-out: AC50) was 1.78 µM (inconclusive). As for `COC(=O)[C@@]1(Cc2ccc(OC)cc2)[C@@H]2C(=CC(=O)[C@H]2CC(=O)C(=O)N2CCCC2)CN1C(=O)c1ccccc1`, the results for the concentration at half-maximal activity (AC50) on Cytochrome P450 3A4 and at Cytochrome P450 2C19 (read-out: AC50) were 2 µM (inconclusive) and 39.8 µM (inconclusive), respectively.

For `O=C(OCc1ccccc1Cl)c1cc([N+](=O)[O-])ccc1N1CCOCC1`, the values for the EC50 in series [1], in series [2] and in series [3] were > 120 µM (not active), 23.3 µM (active) and 36.1 µM (active), respectively.

In the case of `O=c1c(-c2cccs2)nc2cncnc2n1C1CC1`, the figures for the AC50 on Cytochrome P450 3A4 and at Cytochrome P450 2C9 were 5.01 µM (inconclusive) and 15.8 µM (inconclusive), respectively.

As for `CCOC(=O)CC(=O)CSc1nc(-c2cccnc2)cc(C)c1C#N`, the AC50 at Cytochrome P450 3A4 was 11.2 µM (inconclusive); on Cytochrome P450 2C19 (read-out: AC50), 8.91 µM (inconclusive). Regarding `Cc1ccc2cc(C(c3nnnn3C3CCCC3)N3CCN(c4ccc(F)cc4)CC3)c(O)nc2c1` (stereo not drawn), the figures for the EC50 in series [1], in series [2] and in series [3] were 113 µM (active), 20.6 µM (active) and 106 µM (active), respectively. For the molecule `COc1ccc(NC(=O)/C(=C\c2cc(OC)c(OC)cc2[N+](=O)[O-])NC(=O)c2ccccc2)cc1`, the concentration at half-maximal activity (AC50) on Cytochrome P450 3A4 is 0.891 µM (inconclusive); on Cytochrome P450 2C19 (read-out: AC50), 20 µM (inconclusive). With `CCCOc1ccccc1N=C(Nc1nc(C)cc(C)n1)NS(=O)(=O)c1ccc(C)cc1`, the EC50 is > 120 µM (not active) in series [1], 14.6 µM (active) in series [2] and > 120 µM (not active) in series [3]. With `CCC/C=C(\CCC)C(NC(=O)OCC(C)C)c1ccc(C(=O)OC)cc1` (stereo not drawn), at Cytochrome P450 2C19 (read-out: AC50), the concentration at half-maximal activity (AC50) was 25.1 µM (inconclusive). With `Cc1cc(S(=O)(=O)NCCN(C)C)c(C)s1`, the AC50 is 0.0447 µM (inconclusive) on Cytochrome P450 2C9 and 31.6 µM (inconclusive) on Cytochrome P450 2C19 (read-out: AC50). On to `Cc1nc2cnc(Oc3cccc(Cl)c3)nc2n(C[C@H]2CCCO2)c1=O`, for which the AC50 at Cytochrome P450 3A4 is 15.8 µM (inconclusive). Consider `Cc1cc(Oc2ccccc2)nc(-c2ccccc2)n1`, for which the concentration at half-maximal activity (AC50) on Cytochrome P450 2C9 is 12.6 µM (inconclusive).

Take `COc1ccc(Oc2ncc3ncc(=O)n(C[C@H]4CCCO4)c3n2)cc1`: the AC50 on Cytochrome P450 2C9 is 20 µM (inconclusive). With `Cc1cc(C(=O)OC2CCOC2=O)c2ccccc2n1` (stereo not drawn), at Cytochrome P450 2C19 (read-out: AC50), the AC50 was 28.2 µM (inconclusive). As to `COc1ncc2nc(CCc3ccccc3)c(=O)n(CCc3ccccc3)c2n1`, the half-maximal activity concentration (AC50) on Cytochrome P450 2C9 was 2 µM (inconclusive).

With `OCCCCNCc1ccc(OCc2ccccc2Cl)cc1`, the AC50 at Cytochrome P450 3A4 and at Cytochrome P450 2C19 (read-out: AC50) was 25.1 µM (inconclusive) each time. In the case of `O=C(Nc1ccc(Br)cc1Cl)c1ccc2c(=O)n3c(nc2c1)CCC3`, the EC50 in series [4] was 4.04 µM (active). Turning to `Cc1ccccc1C(=O)Nc1cccc(NC(=O)Cn2cnc3c(=O)n(C)c(=O)n(C)c32)c1`, the EC50 is 12.9 µM (active) in series [1], 26.9 µM (active) in series [2] and > 120 µM (not active) in series [3]. As to `Cc1cc(C)cc(N2C(=O)/C(=C/NC3CCS(=O)(=O)C3)c3ccccc3C2=O)c1` (stereo not drawn), the AC50 at Cytochrome P450 2C19 (read-out: AC50) is 39.8 µM (inconclusive). Take `N#C/C(=C(/O)c1cccc(F)c1)c1nc2ccccc2s1`: the EC50 in series [4] is > 53 µM (inactive). On to `CCOC(=O)c1sc(NC(=O)c2cccc(S(=O)(=O)N3c4ccccc4CC3C)c2)cc1C` (stereo not drawn), for which the EC50 was 13.6 µM (active) in series [1], 10.1 µM (active) in series [2] and 6.96 µM (active) in series [3]. Take `COc1ccccc1-c1ccc2ncnc(Nc3ccccc3)c2c1`: the concentration at half-maximal activity (AC50) at Cytochrome P450 2C9 is 1.26 µM (inconclusive).

As for `CCCCc1nc(NCC2CCCO2)c(C#N)c2c1COC(C)(C)C2` (stereo not drawn), the EC50 is > 120 µM (not active) in series [1], 28 µM (active) in series [2] and > 120 µM (not active) in series [3].

`COc1ccc(Cc2nn3c(-c4ccccc4Br)nnc3s2)cc1`: the EC50 in series [2] and in series [3] was > 120 µM (not active) each time. As for `c1ccc(Oc2cccc(OCCCCSc3ncccn3)c2)cc1`, the EC50 in series [4] was > 53 µM (inactive). In the case of `COCCn1c(=O)c(-c2cccs2)nc2cnc(N3CCN(C)CC3)nc21`, the AC50 on Cytochrome P450 3A4 is 31.6 µM (inconclusive).

Regarding `CC(C)=CCC/C(C)=C/CO/N=C1/C[C@@H](O)[C@@H](O)[C@@H]2[C@H]3C(=O)N(c4ccc(F)cc4F)C(=O)[C@@H]3CC[C@@H]12`, the AC50 at Cytochrome P450 3A4 was 3.98 µM (inconclusive). Same read-out and setting: the same measure for `COc1ccccc1-c1nc(N(C)C)c2ccccc2n1`: 15.8 µM (inconclusive). `COc1ccccc1NC(=O)CCSc1nnnn1C`: in series [4], the EC50 was > 53 µM (inactive).

As for `Cc1ccc(SCc2ccc(C(=O)Nc3ccccc3Br)cc2)cc1`, the EC50 in series [4] was > 53 µM (inactive). Turning to `c1ccc(CNc2nc(-c3ccoc3)nc3ccccc23)cc1`, the AC50 on Cytochrome P450 2C19 (read-out: AC50) is 20 µM (inconclusive). Consider `CCOc1ccc(S(=O)(=O)Nc2nc3ccccc3nc2Nc2ccc(N3CCOCC3)cc2)cc1`, for which, in series [4], the EC50 was > 53 µM (inactive). For `CN(C)Cc1ccccc1-c1nc(N(C)Cc2ccco2)c2ccccc2n1`, the concentration at half-maximal activity (AC50) on Cytochrome P450 3A4 was 1.58 µM (inconclusive). Regarding `N#Cc1ccc(CN2CCCC3(CCN(C(=O)c4cccc(F)c4)CC3)C2)cc1`, the results for the AC50 at Cytochrome P450 3A4 and at Cytochrome P450 2C9 were 10 µM (inconclusive) and 39.8 µM (inconclusive), respectively. `CC(C)(Oc1ccc(Cl)cc1)C(=O)Nc1cccnc1`: the AC50 at Cytochrome P450 3A4 was 17.8 µM (inconclusive). Consider `CCOc1ccc(CNC(=O)C2CCC(=O)N2C2CCCC2)cc1OC` (stereo not drawn), for which the AC50 on Cytochrome P450 3A4 was 25.1 µM (inconclusive); at Cytochrome P450 2C9, 28.2 µM (inconclusive); on Cytochrome P450 2C19 (read-out: AC50), 22.4 µM (inconclusive). In the case of `COc1ccc(C2(C)NC(=O)N(CC(=O)c3cc(C)n(C4CC4)c3C)C2=O)cc1` (stereo not drawn), the EC50 in series [4] was 5.74 µM (active). On to `CCCOC(=O)c1ccc(NC(=O)c2cn(CC)c3nc(C)ccc3c2=O)cc1`, for which the AC50 at Cytochrome P450 2C9 was 15.8 µM (inconclusive); on Cytochrome P450 2C19 (read-out: AC50), 20 µM (inconclusive).

Regarding `COc1cc([N+](=O)[O-])ccc1-c1ccc(/C=N/NC(=O)OC(C)(C)C)o1`, in series [4], the EC50 is 6.43 µM (active). As to `CC1(C)C(=O)OC(c2cccn2-c2ccc([N+](=O)[O-])cc2)C2(CCCCC2)C1=O` (stereo not drawn), the EC50 in series [4] was 4.72 µM (active). In the case of `Nc1cccc2cc(S(=O)(=O)Nc3ccc(C(=O)O)cc3)ccc12`, the figures for the concentration at half-maximal activity (AC50) at Cytochrome P450 2C9 and on Cytochrome P450 2C19 (read-out: AC50) were 7.94 µM (inconclusive) and 3.16 µM (inconclusive), respectively. Consider `Cc1cc(C)n(CC(=O)N/N=C/c2ccco2)n1`, for which the concentration at half-maximal activity (AC50) entry at Cytochrome P450 2C19 was “inconclusive”.

Take `COc1ccc(/C=N/NC(=O)C2CCN(c3ncc(C(F)(F)F)cc3Cl)CC2)cc1`: the AC50 at Cytochrome P450 3A4 was 11.2 µM (inconclusive). In the case of `Cc1c(CC(C)(C)C(=O)O)n(Cc2ccc(Cl)cc2)c2ccc(F)cc12`, the values for the AC50 on Cytochrome P450 3A4 and at Cytochrome P450 2C19 were 25.1 µM (inconclusive) and “inconclusive”, respectively. Consider `COc1cccc(-c2ccc3ncnc(NCc4cccnc4)c3c2)c1`, for which the concentration at half-maximal activity (AC50) on Cytochrome P450 2C9 is 1.58 µM (inconclusive).

As for `COc1ccc(-c2oc3cc(OC)c(O)c(OC)c3c(=O)c2OC)cc1O`, the EC50 in series [1] is 12.6 µM (active); in series [2], 11.3 µM (active); in series [3], 13.6 µM (active). For `Nc1ccc(S(=O)(=O)c2ccc(NCN3C(=O)NC(=O)C(=O)C3=O)cc2)cc1` [ALLANTODAPSONE], the AC50 result on Cytochrome P450 2C19 is “inconclusive”. As for `CCN(CC)CC#CCOC(=O)[C@@](O)(c1ccccc1)C1CCCCC1` [ESOXYBUTYNIN], the AC50 on Cytochrome P450 2C9 was 15.8 µM (inconclusive).
